Experimental data as given in patent US20080241274A1 (ZIOPHARM Oncology, Inc., priority 2006, published 2008).
Like-named read-outs stand apart in the source and are kept apart here.

Key:
A549 NSCLC = experiment: Monolayer assay (DNA content by propidium iodide), single agents and indibulin combinations, A549; assay type: cell-based, human; settings: for CI (e), coefficient of interaction under optimal experimental concentrations: named drug in combination with indibulin, mean of quadruplicate; for IC50: Homo sapiens
Description: (§1) The monolayer assay determines the in vitro antitumor activity of test compounds and their capacity to inhibit survival and proliferation of established tumor cell lines. These effects can be determined by establishing the number of viable cells based on measuring the DNA content using propidium iodide. […] Between 5,000 and 10,000 cells were seeded in 96 well plates on Day 0 and the compounds were added 1 day later and incubated for 4 days. The activity was assessed by their IC50 and IC70 values.
(§2) Growth IC50 and IC70 values (Table 2) were determined using XLfit software package, and used to set the concentration ranges and drug ratios for the synergy detection part of the study.
(§3) Chou-Talalay median effect method was used to quantitatively characterize drug-drug interaction [Chou T. C. Theoretical basis, experimental design, and computerized simulation of synergism and antagonism in drug combination studies. Pharmacol Rev. 2006 September; 58(3):621-81]. […] Mixtures of the drugs at multiples of their single agent IC50's were prepared, as well as serial dilutions of the mixture. Additionally, single agent dose response was determined for the same concentration ranges as used for combination study.
(§4) The coefficient of interaction (CI(IC50)) at IC50 and coefficient of interaction under optimal experimental concentrations (CI(e)) were determined using CalcuSyn software package (Table 3, tests were performed in quadruplicate, mean values reported). Commonly, experimental values of CI<0.8 are considered synergistic, 0.8<CI<1.2 additive.

SKOV3 (ovarian) = experiment: Monolayer assay (DNA content by propidium iodide), single agents and indibulin combinations, SKOV3; assay type: cell-based, human; settings: for IC50: Homo sapiens; for CI (e), coefficient of interaction under optimal experimental concentrations / Combination IC50: SKOV3; for CI (e), coefficient of interaction under optimal experimental concentrations: named drug in combination with indibulin, mean of quadruplicate; for Single Agent IC50: SKOV3, single agent (combination study)
Description: as §1, §2, §3, §4

[1] = system: biotin-labeled calf brain tubulin; experiment: Competition with 3H-indibulin for tubulin binding (SPA beads); design: species or system bovine; settings: 200-fold molar excess of cold competitor; FIG. 7
Description: (§5) Where indicated, a 200-fold molar excess of cold competitor was added. Tubulin heterodimers were then precipitated with streptavidin-coated SPA beads and bound radioactivity was determined. “No tubulin” indicates non-specifically bound radioactivity measured in the absence of biotin-labeled tubulin.

[2] = system: biotin-labeled calf brain tubulin; experiment: Competition with 3H-colchicine for tubulin binding (SPA beads); design: species or system bovine; settings: 200-fold molar excess of cold competitor; FIG. 8
Description: as §5

[3] = system: adult bovine brain tubulin; experiment: Tubulin polymerization, adult bovine brain tubulin; assay type: biochemical; settings: calf and adult bovine brain tubulin compared
From the text: Tubulin from neuronal tissue is post-translationally modified and the degree of modification increases during neuronal development. Calf brain neuronal tubulin and tubulin from other tissues differ in their post-translational modifications from that of adult bovine brain. […] Tubulin polymerization is given as % over DMSO control.

[4] = system: MCF-7 ER-positive breast cancer; experiment: Monolayer assay (DNA content by propidium iodide), single agents and indibulin combinations, MCF-7; assay type: cell-based, human; settings: for IC50: Homo sapiens; for CI (e), coefficient of interaction under optimal experimental concentrations: named drug in combination with indibulin, mean of quadruplicate
Description: as §1, §2, §3, §4

[5] = system: axonal microtubules of rat pheochromocytoma (PC12) cells; experiment: Axonal microtubule immunostaining in NGF-differentiated PC12 cells; assay type: cell-based; settings: PC12 neurites induced by NGF 5-6 days; 24 h treatment at 2×IC50 concentration
From the text: The outgrowth of neurites of PCl2 was induced by NGF for 5-6 days. […] Microtubules within the neurites, were visualized by immunostaining with an antibody recognizing acetylated (axonal) tubulin, leaving the cell bodies unstained.

PC3 (prostate) = experiment: Monolayer assay (DNA content by propidium iodide), single agents and indibulin combinations, PC3; assay type: cell-based, human; settings: for IC50: Homo sapiens, read-out: Single Agent IC50; for Combination IC50 / CI (e), coefficient of interaction under optimal experimental concentrations: PC3; for Combination IC50: concentration of the named drug in the combination; for CI (e), coefficient of interaction under optimal experimental concentrations: named drug in combination with indibulin, mean of quadruplicate
Description: as §1, §2, §3, §4

[6] = A549, single agent (combination study)
[7] = A549, 96 h, A549, single agent, 4 days incubation, read-out: Growth IC50
[8] = A549, indibulin + carboplatin (carboplatin:indibulin 303:1), concentration of the named drug in the combination
[9] = MCF7, 96 h, MCF7, single agent, 4 days incubation, read-out: Growth IC50
[10] = MCF7, MCF7, single agent (combination study), read-out: Single Agent IC50
[11] = MCF7, single agent (combination study)
[12] = MCF7, indibulin + vinorelbine (vinorelbine:indibulin 0.016:1), concentration of the named drug in the combination
[13] = MCF7, indibulin + 5-FU (5FU:indibulin 10.9:1), concentration of the named drug in the combination
[14] = MCF7, indibulin + paclitaxel (paclitaxel:indibulin 0.27:1), concentration of the named drug in the combination

## C#Cc1cccc(Nc2ncnc3cc(OCCOC)c(OCCOC)cc23)c1 [Erlotinib]
A549 NSCLC; [6]
  Single Agent IC40: 20315 ng/mL
A549 NSCLC; A549, indibulin + erlotinib (erlotinib:indibulin 208:1), concentration of the named drug in the combination
  Combination IC40: 4424 ng/mL
A549 NSCLC; A549
  CI (e), coefficient of interaction under optimal experimental concentrations: 0.32
A549 NSCLC; [7]
  IC50: 7860 ng/mL
A549 NSCLC; A549, A549, single agent (combination study), read-out: Single Agent IC50
  IC50: 38500 ng/mL
A549 NSCLC; A549, A549, indibulin + erlotinib (erlotinib:indibulin 208:1), concentration of the named drug in the combination, read-out: Combination IC50
  IC50: 6200 ng/mL

## COc1cc([C@@H]2c3cc4c(cc3[C@@H](O[C@@H]3O[C@@H]5CO[C@@H](C)O[C@H]5[C@H](O)[C@H]3O)[C@H]3COC(=O)[C@H]23)OCO4)cc(OC)c1O [Etoposide]
A549 NSCLC; [6]
  Single Agent IC60: 177 ng/mL
A549 NSCLC; A549, indibulin + etoposide, concentration of the named drug in the combination
  Combination IC60: 94 ng/mL
A549 NSCLC; A549
  CI (e), coefficient of interaction under optimal experimental concentrations: 1.05
A549 NSCLC; [7]
  IC50: 52 ng/mL

## Nc1ccn([C@@H]2O[C@H](CO)[C@@H](O)C2(F)F)c(=O)n1 [Gemcitabine]
SKOV3 (ovarian); SK-OV-3, SKOV3, single agent (combination study), read-out: Single Agent IC50
  IC50: 11 ng/mL
SKOV3 (ovarian); SK-OV-3, SKOV3, indibulin + gemcitabine, concentration of the named drug in the combination, read-out: Combination IC50
  IC50: 12 ng/mL
SKOV3 (ovarian)
  CI (e), coefficient of interaction under optimal experimental concentrations: 0.65
A549 NSCLC; A549
  CI (e), coefficient of interaction under optimal experimental concentrations: 0.93
A549 NSCLC; [7]
  IC50: 1.7 ng/mL

## COC(=O)Nc1nc2ccc(C(=O)c3cccs3)cc2[nH]1 [nocodazole]
[1]
  Competition with 3H-indibulin for tubulin binding: compete
[2]
  Inhibition of 3H-colchicine binding (in words): completely inhibit binding

## N.N.O=C([O-])C1(C(=O)[O-])CCC1.[Pt+2] [Carboplatin]
SKOV3 (ovarian)
  Single Agent IC50: 12,026 ng/mL
  CI (e), coefficient of interaction under optimal experimental concentrations: 0.73
SKOV3 (ovarian); indibulin + carboplatin, concentration of the named drug in the combination
  Combination IC50: 12,881 ng/mL
A549 NSCLC; [6]
  Single Agent IC50: 5,827 ng/mL
  Single Agent IC70: 15365 ng/mL
A549 NSCLC; [8]
  Combination IC50: 3481 ng/mL
  Combination IC70: 8044 ng/mL
A549 NSCLC; A549
  CI (e), coefficient of interaction under optimal experimental concentrations: 0.72

## CC[C@]1(O)C[C@H]2CN(CCc3c([nH]c4ccccc34)[C@@](C(=O)OC)(c3cc4c(cc3OC)N(C=O)[C@H]3[C@@](O)(C(=O)OC)[C@H](OC(C)=O)[C@]5(CC)C=CCN6CC[C@]43[C@@H]65)C2)C1 [vincristine]
[3]
  Inhibition of calf versus bovine brain tubulin polymerization (in words): inhibited both, calf and bovine brain tubulin polymerization to a similar extent

## CCC1=C[C@@H]2CN(C1)Cc1c([nH]c3ccccc13)[C@@](C(=O)OC)(c1cc3c(cc1OC)N(C)[C@H]1[C@@](O)(C(=O)OC)[C@H](OC(C)=O)[C@]4(CC)C=CCN5CC[C@]31[C@@H]54)C2 [Vinorelbine]
[4]; [9]
  IC50: 0.18 ng/mL
[4]; [10]
  IC50: 0.19 ng/mL
[4]; [11]
  Single Agent IC60: 0.26 ng/mL
[4]; [12]
  Combination IC50: 0.08 ng/mL
  Combination IC60: 0.10 ng/mL

## COc1cc2c(c(OC)c1OC)-c1ccc(OC)c(=O)cc1[C@@H](NC(C)=O)CC2 [colchicine]
[5]
  Effect on axonal microtubules (acetylated tubulin immunostaining): microtubules were partially disrupted

## O=c1[nH]cc(F)c(=O)[nH]1 [5-FU, 5-Fluorouracil]
[4]; [10]
  IC50: 92 ng/mL
[4]; [11]
  Single Agent IC60: 84 ng/mL
[4]; [13]
  Combination IC50: 57 ng/mL
  Combination IC60: 30 ng/mL
[4]; MCF7
  CI (e), coefficient of interaction under optimal experimental concentrations: 0.46

## C[C@]12CC[C@@H]3c4ccc(OC(=O)N(CCCl)CCCl)cc4CC[C@H]3[C@@H]1CC[C@@H]2O [Estramustine]
PC3 (prostate)
  IC50: 29700 ng/mL
  CI (e), coefficient of interaction under optimal experimental concentrations: 0.76
PC3 (prostate); indibulin + estramustine
  Combination IC50: 26,466 ng/mL

## N.N.[Cl][Pt][Cl] [Cisplatin]
SKOV3 (ovarian)
  Single Agent IC50: 773 ng/mL
  CI (e), coefficient of interaction under optimal experimental concentrations: 0.77
SKOV3 (ovarian); indibulin + cisplatin, concentration of the named drug in the combination
  Combination IC50: 780 ng/mL

## COc1cccc2c1C(=O)c1c(O)c3c(c(O)c1C2=O)C[C@@](O)(C(=O)CO)C[C@@H]3O[C@H]1C[C@H](N)[C@H](O)[C@H](C)O1 [Doxorubicin]
[4]; [10]
  IC50: 7 ng/mL
[4]; MCF7, indibulin + doxorubicin, concentration of the named drug in the combination
  Combination IC50: 3 ng/mL
[4]; MCF7
  CI (e), coefficient of interaction under optimal experimental concentrations: 0.64

## C[C@]12C=CC(=O)C=C1CC[C@@H]1[C@@H]2[C@@H](O)C[C@@]2(C)[C@H]1CC[C@]2(O)C(=O)CO [Prednisolone]
PC3 (prostate); PC3, single agent (combination study)
  IC50: 137000 ng/mL
PC3 (prostate); indibulin + prednisolone
  Combination IC50: 145,659 ng/mL
PC3 (prostate)
  CI (e), coefficient of interaction under optimal experimental concentrations: 0.91

## CC(=O)O[C@H]1C(=O)[C@@]2(C)[C@H]([C@H](OC(=O)c3ccccc3)[C@]3(O)C[C@H](OC(=O)[C@H](O)[C@@H](NC(=O)c4ccccc4)c4ccccc4)C(C)=C1C3(C)C)[C@]1(OC(C)=O)CO[C@@H]1C[C@@H]2O [Paclitaxel]
[1]
  Competition with 3H-indibulin for tubulin binding: do not compete
[2]
  Inhibition of 3H-colchicine binding (in words): no effect
[4]; [9]
  IC50: 0.3 ng/mL
[4]; [10]
  IC50: 1.27 ng/mL
[4]; [11]
  Single Agent IC84: 5.3 ng/mL
[4]; [14]
  Combination IC50: 1.08 ng/mL
  Combination IC84: 2.7 ng/mL
[4]; MCF7
  CI (e), coefficient of interaction under optimal experimental concentrations: 0.42

## COc1cc([C@@H]2c3cc4c(cc3[C@H](O)[C@H]3COC(=O)[C@H]23)OCO4)cc(OC)c1OC [podophyllotoxin]
[1]
  Competition with 3H-indibulin for tubulin binding: compete
[2]
  Inhibition of 3H-colchicine binding (in words): completely inhibit binding

## CC/C(=C(\c1ccccc1)c1ccc(OCCN(C)C)cc1)c1ccccc1 [Tamoxifen]
[4]; [11]
  Single Agent IC60: 3166 ng/mL
[4]; MCF7, indibulin + tamoxifen (tamoxifen:indibulin 100:1), concentration of the named drug in the combination
  Combination IC60: 641 ng/mL
[4]; MCF7
  CI (e), coefficient of interaction under optimal experimental concentrations: 0.67

## CC[C@]1(O)C[C@@H]2CN(CCc3c([nH]c4ccccc34)[C@@](C(=O)OC)(c3cc4c(cc3OC)N(C)[C@H]3[C@@](O)(C(=O)OC)[C@H](OC(C)=O)[C@]5(CC)C=CCN6CC[C@]43[C@@H]65)C2)C1 [Vinblastine]
[1]
  Competition with 3H-indibulin for tubulin binding: do not compete
[2]
  Inhibition of 3H-colchicine binding (in words): no effect
[4]; MCF7
  CI (e), coefficient of interaction under optimal experimental concentrations: 0.50
